In patent publication US20230226092A1, “CANCER […] ON G[…]” (NuCana plc, priority 2015, published 2023):

Test system: advance progressive cancers that are refractory to, or have relapsed on, all conventional therapies
Experiment: ProGem1 dose escalation clinical study: clinical response (RECIST 1.1, tumour markers)
Assay type: in vivo, human
Set-up: CA125 level / CA19.9 / CEA / CA125 / Tumour volume / CA 15.3 tumour marker / inhibin B: unit not given here
Settings: for CA 15.3 tumour marker: 726 at base; for inhibin B: 1,038 prior to study entry
Description: The following data were generated in clinical studies of NUC-1031 in human patients with advance progressive cancers that are refractory to, or have relapsed on, all conventional therapies that have been used to date. The results clearly illustrate the ability of NUC-1031 to successfully treat refractory cancers.
Although the primary objectives of the dose escalation part of the study were to determine the Recommended Phase II Dose (RP2D) and safety profile, secondary objectives included determining the PK profile, however effective treatment of patients with a range of refractory cancers has also been observed as part of this study.
A total of 68 patients have been entered into this dose escalation study, of which 49 were evaluable for clinical response in that they have received at least 2 Cycles of NUC-1031 and were therefore eligible for a RECIST 1.1 assessment.
NUC-1031 was administered as a 5 to 30 minute intravenous slow bolus injection. • Schedule A: NUC-1031 was administered on days 1, 8, 15 of a 4 weekly Cycle. • Schedule B: NUC-1031 was administered on days 1, 5, 8, 12, 15, 19, of a 4 weekly Cycle.
Evaluable patients were patients that received ≥ 2 Cycles of NUC-1031 and were therefore eligible for a RECIST 1.1 assessment at the end of Cycle 2. Where the disease response duration, measured in months, is followed by a “+” this indicates ongoing disease control as of the latest cut-off date.

[1] = evaluable patients n = 49, RECIST 1.1

With “gemcitabine-[phenyl-benzoxy-L-alaninyl)]-phosphate [NUC-1031]” the “Reduction in tumour volume” value (Patient 037, pancreatic cancer, CT scan on 29th April 2014) was 30%, the “Reduction in tumour volume” value (Patient 037, pancreatic cancer, end of Cycle 2 CT scan) was 18.4% and the CEA (Patient 037, pancreatic cancer, from 536 at baseline) was 42. The CA19.9 (Patient 037, pancreatic cancer, from 15,000 at baseline) was 4,000, the “Response to RECIST” value (Patient 038, ovarian cancer, 900 mg/m^2 weekly) was “Progressive Disease” and the “Increase in tumour volume” value (Patient 038, ovarian cancer, end of Cycle 2 scan) was 25%. The Disease response duration (Patient 040, cholangiocarcinoma) was 4 months, the “CA19.9” value (Patient 040, cholangiocarcinoma, 4th June, from 664 at baseline) was 155 and the “Response to RECIST” value (Patient 040, cholangiocarcinoma, 1,000, then 900 mg/m^2 weekly) was “Stable Disease”. The Tumour volume (Patient 040, cholangiocarcinoma, end of Cycle 2 CT scan, from 85 at base) was 82.1, the Disease response duration (Patient 041, breast cancer) was 4 months and the Symptomatic benefit (Patient 041, breast cancer) was “managed to reduce opioids significantly”. For the same substance, the “CA 15.3 tumour marker” value (Patient 041, breast cancer, 19th May 2014) was 824, the “Response to RECIST” value (Patient 041, breast cancer, 900, then 825 mg/m^2 weekly) was “Stable Disease” and the “CA 15.3 tumour marker” value (Patient 041, breast cancer, at C2) was 845. For the same substance, the “Response to RECIST” value (Patient 042, cholangiocarcinoma, 900 mg/m^2 weekly) was “Progressive Disease”, the “Reduction in tumour volume of primary target lesion” value (Patient 042, cholangiocarcinoma, end of Cycle 2 CT scan) was 9% and the Disease response duration (Patient 043, ovarian cancer) was 13 months. The PET scan finding (Patient 043, ovarian cancer, 7th April 2014) was “stable disease and SUV had gone down in some target tumours”, the CA125 (Patient 043, ovarian cancer, 15th July, from 1,099 at baseline) was 910 and the “Response to RECIST” value (Patient 043, ovarian cancer, 900, then 750 mg/m^2 weekly) was “Stable Disease”. For the same substance, the CA125 (Patient 043, ovarian cancer, beginning of Cycle 2, from 1.099 at baseline) was 783, the “Reduction in tumour volume from baseline” value (Patient 043, ovarian cancer, end of Cycle 6 CT scan) was 10% and the “Volume of fluid drained from pleural effusion” value (Patient 043, ovarian cancer, was 300ml per week) was 150 ml per week. For the same substance, the Disease response duration (Patient 044, lung cancer) was 5 months, the “Response to RECIST” value (Patient 044, lung cancer (adenocarcinoma), 900, then 825 mg/m^2 weekly) was “Stable Disease” and the “Reduction in tumour volume” value (Patient 044, lung cancer, end of Cycle 2 CT scan) was 10%. For the same substance, the Disease response duration (Patient 046, adrenal carcinoma) was 11 months, the “Response to RECIST” value (Patient 046, adrenal carcinoma, 1,000, then 900, 750, 625 mg/m^2 weekly) was “Stable Disease” and the “Reduction in tumour volume from baseline” value (Patient 046, adrenal carcinoma, end of Cycle 6 CT scan) was 12.6%. The Disease response duration (Patient 048, ovarian cancer) was 8 months, the “Response to RECIST” value (Patient 048, ovarian cancer (granulosa cell tumour), 1,000, then 900, 825, 750, 625 mg/m^2 weekly) was “Stable Disease” and the “inhibin B” value (Patient 048, ovarian cancer, August) was 1148. For the same substance, the “inhibin B” value (Patient 048, ovarian cancer, July 2014) was 1,106, the “inhibin B” value (Patient 048, ovarian cancer, September) was 1053 and the PET scan finding (Patient 048, ovarian cancer, end of Cycle 1) was “stable disease and reduction in SUV at target sites”. For the same substance, the Symptomatic benefit (Patient 050 (202), oesophageal cancer) was “improvement in their dysphagia”, the “Response to RECIST” value (Patient 050 (202), oesophageal cancer, 900 mg/m^2 weekly) was “Progressive Disease” and the “Response to RECIST” value (Patient 051 (203), anal cancer, 900 mg/m^2 weekly) was “Progressive Disease”. The Disease response duration (Patient 052 (204), oesophageal cancer) was 5 months, the “Response to RECIST” value (Patient 052 (204), oesophageal cancer, 900, then 825 mg/m^2 weekly) was “Stable Disease” and the “Response to RECIST” value (Patient 053 (205), colon cancer, 900 mg/m^2 weekly) was “Progressive Disease”. The “Response to RECIST” value (Patient 055 (207), ovarian cancer, 900, then 825, 625 mg/m^2 weekly) was “Stable Disease”, the “CA125” value (Patient 055 (207), ovarian cancer, January 2015, 36 at baseline) was 24 and the “Reduction in tumour volume from baseline” value (Patient 055 (207), ovarian cancer, end of Cycle 6 CT scan) was 18%. For the same substance, the Disease response duration (Patient 055 (207), ovarian cancer, ongoing) was at least 10 months, the Disease response duration (Patient 057 (209), ovarian cancer) was 5 months and the “Response to RECIST” value (Patient 057 (209), ovarian cancer, 900, then 825, 750 mg/m^2 weekly) was “Stable Disease”. The “Reduction in tumour volume from baseline” value (Patient 057 (209), ovarian cancer, end of Cycle 4 CT scan) was 10%, the Disease response duration (Patient 058 (210), lung cancer) was 4 months and the “Response to RECIST” value (Patient 058 (210), lung cancer, 825, then 750 mg/m^2 weekly) was “Stable Disease”. The Disease response duration (Patient 059 (211), cervical cancer) was 7 months, the “Response to RECIST” value (Patient 059 (211), cervical cancer, 825, then 750, 625 mg/m^2 weekly) was “Stable Disease” and the “Response to RECIST” value (Patient 060 (212), pancreatic cancer, 825 mg/m^2 weekly) was “Progressive Disease”. For the same substance, the Disease response duration (Patient 061 (213), colorectal cancer) was 3 months, the “Response to RECIST” value (Patient 061 (213), colorectal cancer, 825 mg/m^2 weekly) was “Stable Disease” and the “Reduction in tumour volume” value (Patient 061 (213), colorectal cancer, end of Cycle 2 CT scan) was 2%. The Disease response duration (Patient 063 (215), ovarian cancer) was 3 months, the “Response to RECIST” value (Patient 063 (215), ovarian cancer, 825, then 750, 625 mg/m^2 weekly) was “Stable Disease” and the “Response to RECIST” value (Patient 064 (216), trophoblastic cancer, 825 mg/m^2 weekly) was “Progressive Disease”. For the same substance, the “Response to RECIST” value (Patient 066 (218), colorectal cancer, 825, then 750, 625 mg/m^2 weekly) was “Stable Disease”, the “Reduction in tumour volume from baseline” value (Patient 066 (218), colorectal cancer, CT scan on 30th December) was 16% and the Disease response duration (Patient 066 (218), colorectal cancer, ongoing) was at least 8 months. For the same substance, the “Increase from baseline (EOS CT scan)” value (Patient 067 (219), osteosarcoma) was 1%, the “Response to RECIST” value (Patient 067 (219), osteosarcoma, 825, then 750 mg/m^2 weekly) was “Stable Disease” and the Disease response duration (Patient 067 (219), osteosarcoma, ongoing) was at least 7 months. The “Response to RECIST” value (Patient 068 (220), lung cancer, 825 mg/m^2 weekly) was “Progressive Disease”, the “Response to RECIST” value (Patient 069 (221), colorectal cancer, 825, then 750, 675, 625, 500 mg/m^2 weekly) was “Stable Disease” and the PET scan finding (Patient 069 (221), colorectal cancer, PET scan on 30/10) was “Partial Response”. The “Reduction in tumour volume from baseline” value (Patient 069 (221), colorectal cancer, end of C2 CT scan) was 11%, the “Reduction in tumour volume from baseline” value (Patient 069 (221), colorectal cancer, end of C4 CT scan) was 26% and the Disease response duration (Patient 069 (221), colorectal cancer, ongoing) was at least 7 months. For the same substance, the “Clinical examination of metastases” value (Patient 069 (221), colorectal cancer, pre C2 examination) was “cutaneous and sub cutaneous metastases were greatly reduced or almost vanished”, the “Best Overall Response: Partial Responses, patients (%)” value [1] was 5 (10%) and the “Best Overall Response: Progressive Disease, patients (%)” value [1] was 11 (22%). The “Best Overall Response: Stable Disease, patients (%)” value [1] was 33 (67%).
